From patent publication US9120791B2, “Indolizine compounds, a process for their preparation and pharmaceutical compositions containing them” (LES LABORATOIRES SERVIER, priority 2012, dated 2015) come the findings set out here.

Assay [1] concerns RS4;11 leukaemia tumour line. As to the kind of experiment: In vitro cytotoxicity (Microculture Tetrazolium Assay, 48 hours). The assay is classed as cell-based. The settings on record: Homo sapiens, RS4;11 cells, 48 hours exposure, MTT, concentration that inhibits cell viability by 50%, read-out: IC50 (nM) MTT RS4. On the procedure: The cytotoxicity studies were carried out on the RS4;11 leukaemia tumour line.
The cells are distributed onto microplates and exposed to the test compounds for 48 hours.

A further assay concerns the target Bcl-2 protein (Homo sapiens (Human), UniProt P10415). As to the kind of experiment: Inhibition of Bcl-2 by the fluorescence polarisation technique. The assay is classed as binding. The settings on record: fluorescence polarisation test; concentration that inhibits fluorescence polarisation by 50%; read-out: IC50 (nM) Bcl-2 FP. The protocol: The fluorescence polarisation tests were carried out on microplates (384 wells). […] After incubation for 2 hours, the fluorescence polarisation is measured.

Where a name gives a salt, the structure may show the parent alone.

Sequence of Bcl-2 protein (P10415 whole entry): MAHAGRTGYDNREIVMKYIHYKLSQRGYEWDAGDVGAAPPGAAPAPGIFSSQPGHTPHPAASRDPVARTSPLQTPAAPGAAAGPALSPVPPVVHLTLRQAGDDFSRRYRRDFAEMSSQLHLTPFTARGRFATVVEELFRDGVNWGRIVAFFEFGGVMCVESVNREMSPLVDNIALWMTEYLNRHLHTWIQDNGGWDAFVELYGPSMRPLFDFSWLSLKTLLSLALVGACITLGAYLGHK

Consider `CN1CCN(C[C@@H]2Cc3ccccc3CN2C(=O)c2ccc(Cl)cc2-c2cc(C(=O)N(c3ccc(O)cc3)c3ccc4c(ccn4C)c3)c3n2CCCC3)CC1=O` [Example 107, 3-(5-Chloro-2-{[(3S)-3-[(4-methyl-3-oxopiperazin-1-yl)methyl]-3,4-dihydroisoquinolin-2(1H)-yl]carbonyl}phenyl)-N-(4-hydroxyphenyl)-N-(1-methyl-1H-indol-5-yl)-5,6,7,8-tetrahydroindolizine-1-carboxamide hydrochloride], for which the IC50 (usually the point on the concentration scale where inhibition reaches its midpoint) in assay [1] turned out to be 8.29 nM; on Bcl-2 protein, 7 nM.

`COCCN(C)C[C@@H]1Cc2ccccc2CN1C(=O)c1ccc(Cl)cc1-c1cc(C(=O)N(c2ccc(O)cc2)c2ccc3c(ccn3C)c2)c2n1CCCC2` [Example 108, 3-(5-Chloro-2-{[(3S)-3-{[(2-methoxyethyl)(methyl)amino]methyl}-3,4-dihydroisoquinolin-2(1H)-yl]carbonyl}phenyl)-N-(4-hydroxyphenyl)-N-(1-methyl-1H-indol-5-yl)-5,6,7,8-tetrahydroindolizine-1-carboxamide hydrochloride]: the 50% inhibitory concentration (IC50) in assay [1] came to 36.4 nM; on Bcl-2 protein, 9 nM.

For `O=C(c1cc(-c2cc3c(cc2C(=O)N2Cc4ccccc4C[C@H]2C[N+]2([O-])CCOCC2)OCO3)n2c1CCCC2)N(c1ccccc1)c1ccc(O)cc1` [Example 109, N-(4-Hydroxyphenyl)-3-(6-{[(3S)-3-[(4-oxidomorpholin-4-yl)methyl]-3,4-dihydroisoquinolin-2(1H)-yl]carbonyl}-1,3-benzodioxol-5-yl)-N-phenyl-5,6,7,8-tetrahydroindolizine-1-carboxamide], the IC50 in assay [1] was 483 nM; at Bcl-2 protein, 30 nM.

In the case of `CCN(CCOC)C[C@@H]1Cc2ccccc2CN1C(=O)c1ccc(Cl)cc1-c1cc(C(=O)N(c2ccc(O)cc2)c2ccc3c(ccn3C)c2)c2n1CCCC2` [Example 110, 3-(5-Chloro-2-{[(3S)-3-{[ethyl(2-methoxyethyl)amino]methyl}-3,4-dihydroisoquinolin-2(1H)-yl]carbonyl}phenyl)-N-(4-hydroxyphenyl)-N-(1-methyl-1H-indol-5-yl)-5,6,7,8-tetrahydroindolizine-1-carboxamide hydrochloride], the IC50 in assay [1] came out at 129 nM; at Bcl-2 protein, 29 nM.

For `O=C(c1cc(-c2cc(Cl)ccc2C(=O)N2Cc3ccccc3C[C@H]2CN2CCOCC2)n2c1CCCC2)N(c1ccc(O)cc1)c1ccc(F)cc1` [Example 111, 3-(5-Chloro-2-{[(3S)-3-(morpholin-4-ylmethyl)-3,4-dihydroisoquinolin-2(1H)-yl]carbonyl}phenyl)-N-(4-fluorophenyl)-N-(4-hydroxyphenyl)-5,6,7,8-tetrahydroindolizine-1-carboxamide hydrochloride], the IC50 worked out at 81.5 nM in assay [1] and 15 nM on Bcl-2 protein.

In the case of `COc1ccc(C(=O)N2Cc3ccccc3C[C@H]2CN2CCOCC2)c(-c2cc(C(=O)N(c3ccccc3)c3ccc(O)cc3)c3n2CCCC3)c1` [Example 112, N-(4-Hydroxyphenyl)-3-(5-methoxy-2-{[(3S)-3-(morpholin-4-ylmethyl)-3,4-dihydroisoquinolin-2(1H)-yl]carbonyl}phenyl)-N-phenyl-5,6,7,8-tetrahydroindolizine-1-carboxamide hydrochloride], the IC50 turned out to be 139 nM in assay [1] and 9 nM on Bcl-2 protein.

As for `O=C(c1cc(-c2cc3c(cc2C(=O)N2Cc4ccccc4C[C@H]2CN2CCOCC2)OCO3)n2c1CC(O)CC2)N(c1ccccc1)c1ccc(O)cc1` (stereo partly drawn) [Example 113, 7-Hydroxy-N-(4-hydroxyphenyl)-3-(6-{[(3S)-3-(morpholin-4-ylmethyl)-3,4-dihydroisoquinolin-2(1H)-yl]carbonyl}-1,3-benzodioxol-5-yl)-N-phenyl-5,6,7,8-tetrahydroindolizine-1-carboxamide hydrochloride], the results for the IC50 (in assay [1]; at Bcl-2 protein) were 190 nM and 16 nM, respectively.

In the case of `COc1ccc(C(=O)N2Cc3ccccc3C[C@H]2CN2CCOCC2)c(-c2cc(C(=O)N(c3ccc(O)cc3)c3ccc(C)c(F)c3)c3n2CCCC3)c1` [Example 114, N-(3-Fluoro-4-methylphenyl)-N-(4-hydroxyphenyl)-3-(5-methoxy-2-{[(3S)-3-(morpholin-4-ylmethyl)-3,4-dihydroisoquinolin-2(1H)-yl]carbonyl}phenyl)-5,6,7,8-tetrahydroindolizine-1-carboxamide hydrochloride], the IC50 worked out at 43.1 nM in assay [1] and 9 nM on Bcl-2 protein.

For `O=C(c1cc(-c2cc(Cl)ccc2C(=O)N2Cc3ccccc3C[C@H]2CN2CCOCC2)n2c1CCCC2)N(c1ccc(O)cc1)c1ccccc1F` [Example 115, 3-(5-Chloro-2-{[(3S)-3-(morpholin-4-ylmethyl)-3,4-dihydroisoquinolin-2(1H)-yl]carbonyl}phenyl)-N-(2-fluorophenyl)-N-(4-hydroxyphenyl)-5,6,7,8-tetrahydroindolizine-1-carboxamide hydrochloride], the IC50 in assay [1] was found to be 58.1 nM; on Bcl-2 protein, 8 nM.

With `O=C(c1cc(-c2cc(Cl)ccc2C(=O)N2Cc3ccccc3C[C@H]2CN2CCOCC2)n2c1CCCC2)N(c1ccc(O)cc1)c1cccc(F)c1` [Example 116, 3-(5-Chloro-2-{[(3S)-3-(morpholin-4-ylmethyl)-3,4-dihydroisoquinolin-2(1H)-yl]carbonyl}phenyl)-N-(3-fluorophenyl)-N-(4-hydroxyphenyl)-5,6,7,8-tetrahydroindolizine-1-carboxamide hydrochloride], the results for the IC50 (in assay [1]; at Bcl-2 protein) were 43.6 nM and 10 nM, respectively.

For the molecule `O=C(c1cc(-c2cc(Cl)ccc2C(=O)N2Cc3ccccc3C[C@H]2CN2CCOCC2)n2c1CCCC2)N(c1ccc(O)cc1)c1ccc(F)cc1F` [Example 117, 3-(5-Chloro-2-{[(3S)-3-(morpholin-4-ylmethyl)-3,4-dihydroisoquinolin-2(1H)-yl]carbonyl}phenyl)-N-(2,4-difluorophenyl)-N-(4-hydroxyphenyl)-5,6,7,8-tetrahydroindolizine-1-carboxamide hydrochloride], the IC50 in assay [1] was 194 nM; on Bcl-2 protein, 15 nM.

Turning to `O=C(c1cc(-c2cc(Cl)ccc2C(=O)N2Cc3ccccc3C[C@H]2CN2CCOCC2)n2c1CCCC2)N(c1ccc(O)cc1)c1ccc(F)c(F)c1` [Example 118, 3-(5-Chloro-2-{[(3S)-3-(morpholin-4-ylmethyl)-3,4-dihydroisoquinolin-2(1H)-yl]carbonyl}phenyl)-N-(3,4-difluorophenyl)-N-(4-hydroxyphenyl)-5,6,7,8-tetrahydroindolizine-1-carboxamide hydrochloride], the IC50 was 71 nM in assay [1] and 15 nM at Bcl-2 protein.

`N#Cc1cccc(N(C(=O)c2cc(-c3cc(Cl)ccc3C(=O)N3Cc4ccccc4C[C@H]3CN3CCOCC3)n3c2CCCC3)c2ccc(O)cc2)c1` [Example 119, 3-(5-Chloro-2-{[(3S)-3-(morpholin-4-ylmethyl)-3,4-dihydroisoquinolin-2(1H)-yl]carbonyl}phenyl)-N-(3-cyanophenyl)-N-(4-hydroxyphenyl)-5,6,7,8-tetrahydroindolizine-1-carboxamide hydrochloride]: the values for the IC50 (in assay [1]; on Bcl-2 protein) were 31.6 nM and 9 nM, respectively.

For `CS(=O)(=O)N1CCN(C[C@@H]2Cc3ccccc3CN2C(=O)c2cc3c(cc2-c2cc(C(=O)N(c4ccccc4)c4ccc(O)cc4)c4n2CCCC4)OCO3)CC1` [Example 123, N-(4-Hydroxyphenyl)-3-(6-{[(3S)-3-{[4-(methylsulphonyl)piperazin-1-yl]methyl}-3,4-dihydroisoquinolin-2(1H)-yl]carbonyl}-1,3-benzodioxol-5-yl)-N-phenyl-5,6,7,8-tetrahydroindolizine-1-carboxamide hydrochloride], the IC50 was found to be 92.1 nM in assay [1] and 22 nM at Bcl-2 protein.

Regarding `COc1cccc(N(C(=O)c2cc(-c3cc(Cl)ccc3C(=O)N3Cc4ccccc4C[C@H]3CN3CCOCC3)n3c2CCCC3)c2ccc(O)cc2)c1` [Example 124, 3-(5-Chloro-2-{[(3S)-3-(morpholin-4-ylmethyl)-3,4-dihydroisoquinolin-2(1H)-yl]carbonyl}phenyl)-N-(4-hydroxyphenyl)-N-(3-methoxyphenyl)-5,6,7,8-tetrahydroindolizine-1-carboxamide hydrochloride], the IC50 in assay [1] is 101 nM; at Bcl-2 protein it was 28 nM.

For `O=C(c1cc(-c2cc(Cl)ccc2C(=O)N2Cc3ccccc3C[C@H]2CN2CCOCC2)n2c1CCCC2)N(c1ccc(O)cc1)c1cc(F)cc(F)c1` [Example 125, 3-(5-Chloro-2-{[(3S)-3-(morpholin-4-ylmethyl)-3,4-dihydroisoquinolin-2(1H)-yl]carbonyl}phenyl)-N-(3,5-difluorophenyl)-N-(4-hydroxyphenyl)-5,6,7,8-tetrahydroindolizine-1-carboxamide hydrochloride], the IC50 in assay [1] is 81.8 nM; on Bcl-2 protein, 38 nM.

Consider `Cc1cccc(N(C(=O)c2cc(-c3cc(Cl)ccc3C(=O)N3Cc4ccccc4C[C@H]3CN3CCOCC3)n3c2CCCC3)c2ccc(O)cc2)c1` [Example 126, 3-(5-Chloro-2-{[(3S)-3-(morpholin-4-ylmethyl)-3,4-dihydroisoquinolin-2(1H)-yl]carbonyl}phenyl)-N-(4-hydroxyphenyl)-N-(3-methylphenyl)-5,6,7,8-tetrahydroindolizine-1-carboxamide hydrochloride], for which the values for the IC50 (in assay [1]; at Bcl-2 protein) were 115 nM and 26 nM, respectively.

As to `O=C(c1cc(-c2cc3c(cc2C(=O)N2Cc4ccccc4C[C@H]2CN2CCN(CC(F)(F)F)CC2)OCO3)n2c1CCCC2)N(c1ccccc1)c1ccc(O)cc1` [Example 127, N-(4-Hydroxyphenyl)-N-phenyl-3-(6-{[(3S)-3-{[4-(2,2,2-trifluoroethyl)-piperazin-1-yl]methyl}-3,4-dihydroisoquinolin-2(1H)-yl]carbonyl}-1,3-benzodioxol-5-yl)-5,6,7,8-tetrahydroindolizine-1-carboxamide hydrochloride], the figures for the IC50 (in assay [1]; on Bcl-2 protein) were 129 nM and 26 nM, respectively.
